Experimental data published in ChEMBL document CHEMBL5512682, “Discovery of BMS-986308: A Renal Outer Medullary Potassium Channel Inhibitor for the Treatment of Heart Failure” (J Med Chem, 2024).

Assays:
[1] = molecular target: T1, ATP-sensitive inward rectifier potassium channel 1 (Homo sapiens, UniProt P48048)
T1 sequence (P48048 whole entry): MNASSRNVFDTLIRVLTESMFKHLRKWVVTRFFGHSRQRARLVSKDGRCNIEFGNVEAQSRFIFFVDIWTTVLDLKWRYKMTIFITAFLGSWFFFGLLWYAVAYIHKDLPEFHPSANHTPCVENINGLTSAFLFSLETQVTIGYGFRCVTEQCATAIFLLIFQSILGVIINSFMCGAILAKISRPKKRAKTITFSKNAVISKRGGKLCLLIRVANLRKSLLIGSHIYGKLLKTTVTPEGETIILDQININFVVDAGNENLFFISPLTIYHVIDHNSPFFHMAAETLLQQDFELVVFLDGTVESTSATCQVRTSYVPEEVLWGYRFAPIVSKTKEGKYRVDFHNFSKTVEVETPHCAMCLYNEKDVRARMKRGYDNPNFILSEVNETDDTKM
Description: Inhibition of human ROMK expressed in T-REX-CHO cells incubated for 30 mins by thallium flux assay

[2] = Metabolic stability in human liver microsomes assessed as parent compound remaining at 10 uM measured after 10 mins in presence of NADPH and GSH by UPLC-MS/MS analysis; format: ADME, Microsome; details: read-out: Stability
[3] = molecular target: T2, hERG (KCNH2) (Homo sapiens, UniProt Q12809); test: Inhibition of human ERG expressed in HEK293 cells at 1 uM incubated for 2 to 5 mins by Manual patch clamp assay relative to control; format: toxicity, cell-based; details: HEK293 cells expressing hERG, time 2-5 min
T2 sequence (Q12809 whole entry): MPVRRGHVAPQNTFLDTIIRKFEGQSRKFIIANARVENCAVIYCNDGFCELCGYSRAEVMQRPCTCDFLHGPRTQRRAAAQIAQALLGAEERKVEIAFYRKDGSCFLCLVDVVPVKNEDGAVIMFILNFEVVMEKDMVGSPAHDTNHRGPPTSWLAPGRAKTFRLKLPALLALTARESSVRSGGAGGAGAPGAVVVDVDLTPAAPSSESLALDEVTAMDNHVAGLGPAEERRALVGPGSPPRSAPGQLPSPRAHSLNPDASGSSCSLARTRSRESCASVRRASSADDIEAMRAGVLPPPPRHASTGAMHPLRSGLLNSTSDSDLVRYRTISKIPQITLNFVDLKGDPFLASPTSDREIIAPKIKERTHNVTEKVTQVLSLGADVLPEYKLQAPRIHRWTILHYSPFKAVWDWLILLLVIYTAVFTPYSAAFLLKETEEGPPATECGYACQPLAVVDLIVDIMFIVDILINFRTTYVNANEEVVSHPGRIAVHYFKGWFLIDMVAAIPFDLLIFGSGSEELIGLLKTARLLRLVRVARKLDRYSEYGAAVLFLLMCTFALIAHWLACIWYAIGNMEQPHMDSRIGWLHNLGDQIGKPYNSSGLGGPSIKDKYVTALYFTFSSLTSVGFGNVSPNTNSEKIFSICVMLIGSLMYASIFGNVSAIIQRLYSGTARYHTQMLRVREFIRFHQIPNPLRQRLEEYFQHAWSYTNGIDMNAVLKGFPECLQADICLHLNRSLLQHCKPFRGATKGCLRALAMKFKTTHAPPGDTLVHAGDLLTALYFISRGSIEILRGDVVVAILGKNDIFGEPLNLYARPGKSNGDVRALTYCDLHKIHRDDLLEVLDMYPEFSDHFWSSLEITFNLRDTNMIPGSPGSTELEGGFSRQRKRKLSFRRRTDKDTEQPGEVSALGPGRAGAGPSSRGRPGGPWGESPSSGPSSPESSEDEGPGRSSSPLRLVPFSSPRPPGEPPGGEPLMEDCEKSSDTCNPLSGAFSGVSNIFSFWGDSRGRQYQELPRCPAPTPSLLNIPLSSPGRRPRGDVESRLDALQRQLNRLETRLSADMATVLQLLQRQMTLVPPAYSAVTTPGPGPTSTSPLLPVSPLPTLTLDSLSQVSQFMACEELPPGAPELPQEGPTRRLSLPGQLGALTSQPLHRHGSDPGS

[4] = Metabolic stability in rat liver microsomes assessed as parent compound remaining at 10 uM measured after 10 mins in presence of NADPH and GSH by UPLC-MS/MS analysis; format: ADME, Microsome; details: read-out: Stability
[5] = molecular target: T2, hERG (KCNH2); test: Inhibition of human ERG expressed in HEK293 cells at 10 uM incubated for 2 to 5 mins by Manual patch clamp assay relative to control; format: toxicity, cell-based; details: HEK293 cells expressing hERG, time 2-5 min
[6] = molecular target: T1, ATP-sensitive inward rectifier potassium channel 1; remark: listed apart in the source
Description: Inhibition of human ROMK expressed in T-REX-CHO cells incubated for 3 to 8 mins by whole cell manual patch clamp assay

[7] = molecular target: Voltage-gated inwardly rectifying potassium channel KCNH2 (Homo sapiens, UniProt Q12809); test: Inhibition of human ERG expressed in HEK293 cells incubated for 2 to 5 mins by Manual patch clamp assay; format: toxicity, cell-based
Voltage-gated inwardly rectifying potassium channel KCNH2, sequence (Q12809 whole entry): as above

[8] = Glutathione reactivity in human liver microsomes assessed as GSH-adduct formation at 10 uM incubated for 60 mins in presence of NADPH and GSH by HPLC-MS analysis; format: ADME, Microsome; details: 1 h
[9] = molecular target: T2, hERG (KCNH2); test: Inhibition of human ERG expressed in HEK293 cells at 3 uM incubated for 2 to 5 mins by Manual patch clamp assay relative to control; format: toxicity, cell-based; details: HEK293 cells expressing hERG, time 2-5 min
[10] = organism: Homo sapiens; test: Selectivity ratio of IC50 for inhibition of ERG expressed in HEK293 cells to IC50 for inhibition of human ROMK expressed in T-REX-CHO cells incubated for 30 mins by thallium flux assay; format: cell-based
[11] = organism: Homo sapiens; test: Selectivity ratio of IC50 for inhibition of ERG expressed in HEK293 cells to IC50 for inhibition of human ROMK expressed in T-REX-CHO cells incubated for 3 to 8 mins by whole cell manual patch clamp assay; format: cell-based

IC50 [1]	remaining at 10 min, 10 µM [2]	remaining at 10 min, 10 µM [4]	SMILES	inhibition at 1 µM [3]	also measured
74 nM	73%	44%	N#Cc1ccc(-c2ncc3c(n2)CCN(C[C@H](O)c2ccc4c(c2)COC4=O)C3)cc1F	50%	
	85%	33%	Cc1cc(-c2ncc(CNC[C@H](O)c3ccc4c(c3C)COC4=O)s2)ncc1C#N		inhibition at 10 µM [5]: 72%
	49%	60%	Cc1cc(-n2cc(CN3CCO[C@H](c4ccc5c(c4C)COC5=O)C3)cn2)ncc1C#N	26%	
	46%	62%	Cc1cc(-n2cc(CN3CCNC(c4ccc5c(c4C)COC5=O)C3C)cn2)ncc1C#N (stereo not given)	45%	Activity [8]: Active
46 nM	97%	67%	Cc1cc(-n2cnc(CNC[C@H](O)c3ccc4c(c3C)COC4=O)c2)ncc1C#N		inhibition at 10 µM [5]: 72%
	54%	50%	Cc1cc(-n2cc(CN3CC(O)CC(c4ccc5c(c4C)COC5=O)C3)cn2)ncc1C#N (stereo not given)		Activity [8]: Active; inhibition at 3 µM [9]: 76%
	62%	100%	Cc1cc(-n2ncc(CN3C[C@@H](c4ccc5c(c4C)COC5=O)NC(C)(C)C3)n2)ncc1C#N		
61 nM			N#Cc1ccc(-c2ccc3c(n2)CCN(C[C@H](O)c2ccc4c(c2)COC4=O)C3)cc1F	80%	IC50 [6]: 37 nM
8.8 nM	62%	96%	Cc1c([C@@H](O)CN2CCc3nc(-c4ccc(C#N)c(F)c4)ncc3C2)ccc2c1COC2=O	71%	IC50 [6]: 9.4 nM; IC50 [7]: 410 nM; Ratio IC50 [10]: 40; Ratio IC50 [11]: 40
	64%	67%	Cc1cc(-n2cc(CN3CC(=O)N[C@H](c4ccc5c(c4C)COC5=O)C3)cn2)ncc1C#N		inhibition at 10 µM [5]: 42%
430 nM	12%	1%	Cc1cc(-n2ccc(CNC[C@H](O)c3ccc4c(c3C)COC4=O)n2)ncc1C#N		inhibition at 10 µM [5]: 59%

More lines, now with the values behind:

SMILES	IC50 [1]	remaining at 10 min, 10 µM [2]	remaining at 10 min, 10 µM [4]	inhibition at 1 µM [3]	also measured
COc1c(CNC[C@H](O)c2ccc3c(c2C)COC3=O)cnn1-c1cc(C)c(C#N)cn1				91%	
Cc1cc(-n2cc(CN3C[C@@H](c4ccc5c(c4C)COC5=O)OC(C)(C)C3)cn2)ncc1C#N		44%	56%	13%	
Cc1cc(-n2cc(CNC[C@H](O)c3ccc4c(c3C)COC4=O)cn2)ncc1C#N		86%	72%		
N#Cc1ccc(-c2ccc3c(c2)CCN(CCc2ccc4c(c2)COC4=O)C3)cc1F	59 nM	72%	8%		IC50 [6]: 13 nM; IC50 [7]: 10 nM
Cc1cc(-n2cc(CN3CC[C@@H](O)[C@H](c4ccc5c(c4C)COC5=O)C3)cn2)ncc1C#N		64%	75%		Activity [8]: Not Active
Cc1cc(-n2cc(CN3CC(O)C(c4ccc5c(c4C)COC5=O)C3)cn2)ncc1C#N (stereo not given)	30 nM	100%	84%	58%	
Cc1c([C@@H](O)CNCc2ccc(-c3ccc(C#N)c(F)c3)nc2)ccc2c1COC2=O		75%	51%	66%	
Cc1cc(-n2cc(CN3C[C@H](CO)N[C@H](c4ccc5c(c4C)COC5=O)C3)cn2)ncc1C#N		76%	93%		Activity [8]: Not Active
Cc1c([C@@H](O)CN(C)Cc2ccc(-c3ccc(C#N)c(F)c3)nc2)ccc2c1COC2=O		40%	7%	68%	
Cc1cc(-n2ncc(CNC[C@H](O)c3ccc4c(c3C)COC4=O)n2)ncc1C#N	52 nM	92%	94%		IC50 [6]: 8.1 nM; inhibition at 10 µM [5]: 87%
N#Cc1ccc(-c2ccc3c(c2)CCN(C[C@H](O)c2ccc4c(c2)COC4=O)C3)cc1F	32 nM			97%	
Cc1cc(-n2ncc(CN3CCN[C@H](c4ccc5c(c4C)COC5=O)C3)n2)ncc1C#N		100%	100%		
Cc1cc(-n2cc(CN3CCN[C@H](c4ccc5c(c4C)COC5=O)C3)cn2)ncc1C#N		96%	90%		
Cc1cc(-n2cc(CNC[C@H](O)c3ccc4c(c3C)COC4=O)c(C(F)F)n2)ncc1C#N		18%	1%		inhibition at 10 µM [5]: 77%
Cc1cc(-n2cc(CN3CCCC(c4ccc5c(c4C)COC5=O)C3)cn2)ncc1C#N (stereo not given)		59%	29%	75%	
Cc1cc(-c2ccc(CNC[C@H](O)c3ccc4c(c3C)COC4=O)cn2)ncc1C#N		90%	46%		inhibition at 10 µM [5]: 71%
Cc1cc(-n2cc(CN3CC(c4ccc5c(c4C)COC5=O)NCC3C)cn2)ncc1C#N (stereo not given)					Activity [8]: Active
